Data on 2 compounds can be found in publication PMC7948977 (The Journal of Biological Chemistry, 2020).

Experiment [1] concerns the target T1, ASFV dUTPase (African swine fever virus, UniProt Q65199). It counts as biochemical.
Experiment [2] has as its target T1, ASFV dUTPase. Nature of the experiment: biochemical. It counts as binding.
The test system of the next experiment is swine dUTPase. It counts as biochemical.

Molecules are shown by their SMILES.

T1 sequence (Q65199 whole entry, looked up): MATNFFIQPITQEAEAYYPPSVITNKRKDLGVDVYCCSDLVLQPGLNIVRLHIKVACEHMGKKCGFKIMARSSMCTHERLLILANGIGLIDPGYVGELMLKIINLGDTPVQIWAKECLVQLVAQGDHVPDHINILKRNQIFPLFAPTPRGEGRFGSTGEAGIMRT

For orientation: Kd means a measure of binding affinity in units of concentration. `O=c1ccn(CCCCOC(c2ccccc2)(c2ccccc2)c2ccccc2)c(=O)[nH]1` [compound 2]: the “inhibition of enzyme activity of ASFV dUTPase” value against ASFV dUTPase [1] is “dose-dependent manner”. Further, the Kd result on ASFV dUTPase [2] is given as “cannot be calculated”.
Consider `O=c1ccn(CCCCNC(c2ccccc2)(c2ccccc2)c2ccccc2)c(=O)[nH]1` [compound 1], for which the “inhibition of enzyme activity of ASFV dUTPase” value against ASFV dUTPase [1] is “dose-dependent manner”. For the same compound, on ASFV dUTPase [2], the Kd amounted to 15.6 µM and the mode of inhibition result is recorded as “competitive inhibitor”. In the experiment on swine dUTPase, the “selectivity of inhibitory activity for ASFV dUTPase over swine dUTPase” value was “selective for ASFV dUTPase over swine dUTPase”.
